Reference: patent US12637433B2, “Histone deacetylase inhibitors” (THE UNIVERSITY OF QUEENSLAND, priority 2020, dated 2026)
Read-outs that look alike come from different tables or passages of the source.

Assays:
Assay type in all cases: biochemical
[1] = target: HDAC4 (Homo sapiens, UniProt P56524); assay: Isoform selectivity, HDAC4 inhibition; conditions: Table 9; recombinant human HDAC; read-out: IC50, Class IIa HDAC4
[2] = target: T1, human HDAC6 enzyme (Homo sapiens, UniProt Q9UBN7); assay: Human HDAC6 enzyme assay (Class IIb HDACs); conditions: Table 9; recombinant human HDAC
T1 construct: purchased Cayman Chemical
Method: The inhibitory effect of compounds on HDAC6 activity was assessed in vitro using an optimised assay performed in black/flat black wall 384-well plate (Corning Inc.). All reagents and compounds were prepared in HDAC assay buffer (25 mM Tris-HCl, 137 mM NaCl, 2.7 mM KCl, 1 mM MgCl2·H2O and 0.1 mg/mL bovine serum albumin; pH 8). Various concentrations of inhibitor were pre-incubated with 100 ng/ml human HDAC6 enzyme (Cayman Chemical) for 15 min at room temperature on a plate shaker. Substrate (Boc-Lys(Ac)-AMC, 25 μM) were then added and incubated for 60 min at 37° C. in the dark. The enzymatic reaction was then incubated with the developer solution (1 mg/mL trypsin and 10 μM SAHA) for 15-20 min at room temperature. Fluorescence intensity was measured using PHERAstar plate reader (BMG Labtech) at 350 nm excitation and 460 nm emission.
(§1) Data analysis: Triplicate measurements were made for each data point and error bars represent mean±SEM of three independent experiments. All data were plotted and analysed using GraphPad Prism Version 6.0d for Mac OS X (GraphPad Software). Dose Response Curves plotted using 4 parameters logistic model.

[3] = target: HDAC5 (Homo sapiens, UniProt Q9UQL6); assay: Isoform selectivity, HDAC5 inhibition; conditions: Table 9; recombinant human HDAC; read-out: IC50, Class IIa HDAC5
[4] = target: HDAC9 (Homo sapiens, UniProt Q9UKV0); assay: Isoform selectivity, HDAC9 inhibition; conditions: Table 9; recombinant human HDAC; read-out: IC50, Class IIa HDAC9
[5] = target: T2, human HDAC1 enzyme (Homo sapiens, UniProt Q13547); assay: Human HDAC1 enzyme assay (Class I HDACs)
T2 construct: purchased BPS Bioscience
Method: The inhibitory effect of compounds on HDAC1 activity was assessed in vitro using an optimised assay performed in black/flat black wall 384-well plate (Corning Inc.). All reagents and compounds were prepared in HDAC1 assay buffer (25 mM Tris-HCl, 137 mM NaCl, 2.7 mM KCl, 1 mM MgCl2·H2O and 0.1 mg/mL bovine serum albumin; pH 8). Various concentrations of inhibitor were pre-incubated with 50 ng/mL human HDAC1 enzyme (BPS Bioscience) for 30 min at room temperature on a plate shaker. Substrate (Leu(Ac)-Gly-Lys(Ac)-AMC, 12 μM) were then added and incubated for 90 min at 37° C. in the dark. The enzymatic reaction was then incubated with the developer solution (1 mg/mL trypsin and 25 μM SAHA) for 15-20 min at room temperature. Fluorescence intensity was measured using PHERAstar plate reader (BMG Labtech) at 350 nm excitation and 460 nm emission.
as §1

[6] = target: T3, human HDAC7 enzyme (Homo sapiens, UniProt Q8WUI4); assay: Human HDAC7 enzyme assay (Class IIa HDACs); conditions: Table 8; recombinant human HDAC7
T3 construct: purchased Reaction Biology Corp

[7] = Table 8, recombinant human HDAC1, read-out: IC50 (nM) (HDAC1)
[8] = Table 9, recombinant human HDAC, read-out: IC50, Class I HDAC1

T3 sequence (Q8WUI4 whole entry): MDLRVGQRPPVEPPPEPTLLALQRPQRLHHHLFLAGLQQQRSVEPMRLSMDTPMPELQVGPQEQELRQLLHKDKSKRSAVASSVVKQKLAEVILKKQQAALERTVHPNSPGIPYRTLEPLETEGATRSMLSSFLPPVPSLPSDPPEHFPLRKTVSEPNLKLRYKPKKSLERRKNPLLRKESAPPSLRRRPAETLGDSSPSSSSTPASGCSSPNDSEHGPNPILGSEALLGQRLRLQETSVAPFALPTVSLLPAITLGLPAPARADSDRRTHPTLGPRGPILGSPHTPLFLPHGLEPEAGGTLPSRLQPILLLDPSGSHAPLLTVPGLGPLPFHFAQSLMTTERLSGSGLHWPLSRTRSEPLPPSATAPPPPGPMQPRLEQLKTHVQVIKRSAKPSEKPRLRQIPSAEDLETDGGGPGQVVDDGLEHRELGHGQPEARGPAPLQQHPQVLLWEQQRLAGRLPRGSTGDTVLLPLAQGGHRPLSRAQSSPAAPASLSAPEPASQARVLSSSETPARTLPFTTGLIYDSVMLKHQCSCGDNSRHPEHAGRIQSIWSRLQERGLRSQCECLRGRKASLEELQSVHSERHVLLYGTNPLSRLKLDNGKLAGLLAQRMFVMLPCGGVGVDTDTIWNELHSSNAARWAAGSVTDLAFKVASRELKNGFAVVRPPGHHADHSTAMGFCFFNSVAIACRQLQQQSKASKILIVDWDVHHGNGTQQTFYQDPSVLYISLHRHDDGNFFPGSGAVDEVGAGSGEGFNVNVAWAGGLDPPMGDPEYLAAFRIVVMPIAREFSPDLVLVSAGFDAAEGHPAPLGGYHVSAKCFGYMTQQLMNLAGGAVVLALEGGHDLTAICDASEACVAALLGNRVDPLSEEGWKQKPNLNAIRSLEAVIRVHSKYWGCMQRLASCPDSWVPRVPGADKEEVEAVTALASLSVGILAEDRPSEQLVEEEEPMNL
T1 sequence (Q9UBN7 whole entry): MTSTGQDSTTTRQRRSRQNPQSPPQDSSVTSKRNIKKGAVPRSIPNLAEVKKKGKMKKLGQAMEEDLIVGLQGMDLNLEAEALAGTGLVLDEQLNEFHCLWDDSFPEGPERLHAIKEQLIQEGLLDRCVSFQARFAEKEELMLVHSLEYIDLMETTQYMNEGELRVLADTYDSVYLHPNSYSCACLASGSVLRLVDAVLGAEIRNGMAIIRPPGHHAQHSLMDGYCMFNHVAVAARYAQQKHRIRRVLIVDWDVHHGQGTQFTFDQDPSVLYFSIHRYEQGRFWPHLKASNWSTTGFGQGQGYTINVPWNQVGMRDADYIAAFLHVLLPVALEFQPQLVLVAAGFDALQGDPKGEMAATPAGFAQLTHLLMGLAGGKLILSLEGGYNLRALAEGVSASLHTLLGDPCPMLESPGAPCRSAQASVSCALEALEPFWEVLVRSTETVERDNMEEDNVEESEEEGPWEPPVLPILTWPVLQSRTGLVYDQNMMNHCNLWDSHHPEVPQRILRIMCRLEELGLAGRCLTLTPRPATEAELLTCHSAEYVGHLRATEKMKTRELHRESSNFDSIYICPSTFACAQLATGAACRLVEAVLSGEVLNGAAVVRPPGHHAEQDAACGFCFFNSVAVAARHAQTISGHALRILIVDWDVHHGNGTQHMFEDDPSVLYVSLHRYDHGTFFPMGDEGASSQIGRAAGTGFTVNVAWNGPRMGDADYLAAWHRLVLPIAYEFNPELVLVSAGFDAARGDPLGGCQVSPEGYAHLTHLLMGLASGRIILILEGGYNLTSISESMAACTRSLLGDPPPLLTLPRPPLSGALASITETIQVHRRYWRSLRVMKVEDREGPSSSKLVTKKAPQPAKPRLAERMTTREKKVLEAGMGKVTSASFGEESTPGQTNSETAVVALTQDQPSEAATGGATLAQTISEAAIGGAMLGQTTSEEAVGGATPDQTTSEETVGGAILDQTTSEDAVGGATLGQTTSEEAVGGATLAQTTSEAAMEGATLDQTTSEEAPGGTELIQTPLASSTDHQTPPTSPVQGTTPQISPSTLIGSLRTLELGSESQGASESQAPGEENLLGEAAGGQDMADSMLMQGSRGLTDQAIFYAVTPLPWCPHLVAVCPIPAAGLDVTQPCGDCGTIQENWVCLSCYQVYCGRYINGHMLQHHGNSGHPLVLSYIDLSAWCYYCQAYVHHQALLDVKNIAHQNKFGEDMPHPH
HDAC4, sequence (P56524 whole entry, canonical isoform): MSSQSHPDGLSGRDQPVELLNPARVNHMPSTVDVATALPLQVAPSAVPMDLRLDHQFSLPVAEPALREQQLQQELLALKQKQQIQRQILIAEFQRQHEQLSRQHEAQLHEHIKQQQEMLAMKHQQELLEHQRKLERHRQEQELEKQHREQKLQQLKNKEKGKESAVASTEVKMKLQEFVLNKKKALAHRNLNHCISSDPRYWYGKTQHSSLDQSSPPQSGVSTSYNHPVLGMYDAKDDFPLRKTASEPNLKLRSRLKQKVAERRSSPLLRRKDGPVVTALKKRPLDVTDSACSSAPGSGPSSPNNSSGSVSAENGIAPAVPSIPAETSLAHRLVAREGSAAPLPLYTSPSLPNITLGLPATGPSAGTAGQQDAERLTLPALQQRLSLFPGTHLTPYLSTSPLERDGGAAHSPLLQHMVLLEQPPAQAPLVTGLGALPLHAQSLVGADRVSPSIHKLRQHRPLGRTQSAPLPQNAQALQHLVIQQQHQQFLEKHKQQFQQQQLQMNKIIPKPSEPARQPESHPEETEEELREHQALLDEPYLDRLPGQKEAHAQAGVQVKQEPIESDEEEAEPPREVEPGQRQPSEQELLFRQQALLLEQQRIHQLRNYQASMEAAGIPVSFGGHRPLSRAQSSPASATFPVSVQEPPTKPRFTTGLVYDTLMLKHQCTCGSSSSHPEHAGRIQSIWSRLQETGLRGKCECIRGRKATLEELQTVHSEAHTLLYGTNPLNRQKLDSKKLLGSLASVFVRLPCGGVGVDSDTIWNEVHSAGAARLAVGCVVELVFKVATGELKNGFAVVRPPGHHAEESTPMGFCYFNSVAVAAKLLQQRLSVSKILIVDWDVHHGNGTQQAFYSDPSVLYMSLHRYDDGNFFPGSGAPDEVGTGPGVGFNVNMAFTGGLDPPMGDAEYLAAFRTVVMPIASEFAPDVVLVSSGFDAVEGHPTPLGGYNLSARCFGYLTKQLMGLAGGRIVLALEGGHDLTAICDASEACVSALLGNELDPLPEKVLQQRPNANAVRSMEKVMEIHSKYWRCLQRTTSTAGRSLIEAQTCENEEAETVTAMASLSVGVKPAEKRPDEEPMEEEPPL
HDAC5, sequence (Q9UQL6 whole entry, canonical isoform): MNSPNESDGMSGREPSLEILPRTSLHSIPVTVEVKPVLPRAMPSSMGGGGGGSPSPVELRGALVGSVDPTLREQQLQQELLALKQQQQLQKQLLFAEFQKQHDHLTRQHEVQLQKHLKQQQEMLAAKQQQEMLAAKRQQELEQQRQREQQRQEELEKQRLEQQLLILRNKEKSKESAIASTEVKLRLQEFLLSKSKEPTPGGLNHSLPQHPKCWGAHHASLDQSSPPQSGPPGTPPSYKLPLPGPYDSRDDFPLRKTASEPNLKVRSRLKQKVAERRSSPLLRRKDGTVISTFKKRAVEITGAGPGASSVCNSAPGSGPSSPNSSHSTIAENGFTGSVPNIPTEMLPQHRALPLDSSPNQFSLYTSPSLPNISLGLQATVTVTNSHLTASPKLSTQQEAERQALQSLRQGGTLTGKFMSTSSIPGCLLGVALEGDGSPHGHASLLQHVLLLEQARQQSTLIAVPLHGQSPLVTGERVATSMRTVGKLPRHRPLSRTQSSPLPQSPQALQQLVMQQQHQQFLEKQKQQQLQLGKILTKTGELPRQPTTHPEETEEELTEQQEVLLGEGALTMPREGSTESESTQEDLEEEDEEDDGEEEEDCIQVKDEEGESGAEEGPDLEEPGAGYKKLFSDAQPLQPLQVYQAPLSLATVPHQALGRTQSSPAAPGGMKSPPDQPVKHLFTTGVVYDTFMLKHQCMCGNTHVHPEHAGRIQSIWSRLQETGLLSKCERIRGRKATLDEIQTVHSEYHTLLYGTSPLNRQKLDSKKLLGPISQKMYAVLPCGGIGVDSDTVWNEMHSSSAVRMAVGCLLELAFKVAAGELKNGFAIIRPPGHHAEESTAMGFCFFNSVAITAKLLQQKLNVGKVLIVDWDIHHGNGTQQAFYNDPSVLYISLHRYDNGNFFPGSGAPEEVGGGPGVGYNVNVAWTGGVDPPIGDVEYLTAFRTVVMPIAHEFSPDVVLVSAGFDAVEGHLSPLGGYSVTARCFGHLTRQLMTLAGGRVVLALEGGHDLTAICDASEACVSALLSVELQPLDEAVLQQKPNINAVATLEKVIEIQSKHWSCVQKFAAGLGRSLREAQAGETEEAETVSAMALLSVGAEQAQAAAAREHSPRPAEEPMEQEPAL
T2 sequence (Q13547 whole entry): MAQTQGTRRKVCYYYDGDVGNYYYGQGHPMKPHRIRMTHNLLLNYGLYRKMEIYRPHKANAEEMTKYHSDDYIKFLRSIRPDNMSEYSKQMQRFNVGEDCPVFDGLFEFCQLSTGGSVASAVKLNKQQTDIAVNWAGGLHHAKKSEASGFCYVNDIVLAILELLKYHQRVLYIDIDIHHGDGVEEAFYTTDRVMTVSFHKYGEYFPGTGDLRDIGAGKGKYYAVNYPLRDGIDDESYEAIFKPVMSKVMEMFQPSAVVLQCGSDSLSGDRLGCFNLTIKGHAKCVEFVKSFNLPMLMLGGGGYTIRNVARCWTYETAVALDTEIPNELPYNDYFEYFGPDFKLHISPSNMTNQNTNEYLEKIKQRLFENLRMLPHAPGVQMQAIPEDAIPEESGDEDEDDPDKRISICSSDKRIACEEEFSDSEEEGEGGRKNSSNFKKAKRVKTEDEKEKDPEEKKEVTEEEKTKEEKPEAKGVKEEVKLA

`O=C(NO)c1ccc(CN2C(=O)c3ccccc3S2(=O)=O)cc1-c1ccccc1` [Example 56] gave an IC50 [1] of 48 ± 6 nM, an IC50 [2] of 5500 nM and an IC50 [3] of 8 ± 1 nM. It also gave an IC50 [4] of 93 ± 44 nM, an IC50 [5, 7] of 4900 nM and an IC50 [5, 8] of 4900 nM.

Compound `CN(C)c1ccc(C2(C(=O)Nc3ccc(C(=O)NO)c(-c4ccccc4)c3)CCCC2)cc1` [Example 64] has an IC50 [6] of 556 ± 317 nM and an IC50 [5, 7] greater than 10000 nM.

For `O=C(NO)c1ccc(CN2C(=O)c3ccccc3C2=O)cc1-c1ccccc1` [Example 36], the IC50 [1] was 28 ± 4 nM, the IC50 [2] was 5700 nM and the IC50 [3] was 12 ± 2 nM. The IC50 [4] was 133 ± 52 nM, the IC50 [5, 7] was 32000 nM and the IC50 [5, 8] was 32000 nM.

Work on `O=C(NO)c1ccc(NC(=O)C2(c3ccc(Br)cc3)CCCC2)cc1-c1ccccc1` [Example 65] yielded an IC50 [6] of 1210 ± 700 nM and an IC50 [5, 7] of 4900 ± 1710 nM.

`NC(=O)c1ccc(Nc2ccc(C(=O)NO)c(-c3ccccc3)c2)cc1` [Example 79] gave an IC50 [6] of 43 ± 9 nM and an IC50 [5, 7] greater than 10000 nM.

For `O=C(NCc1ccc(C(=O)NO)c(-c2ccccc2)c1)c1ccc[nH]1` [Example 23], the IC50 [6] was 81 ± 14 nM and the IC50 [5, 7] was greater than 10000 nM.

With `Cc1nc2ccccc2c(=O)n1Cc1ccc(C(=O)NO)c(-c2ccc(F)cc2)c1` [Example 14] the IC50 [1] was 22 ± 3 nM, the IC50 [2] was 1300 ± 480 nM and the IC50 [3] was 8 ± 1 nM. It also gave an IC50 [4] of 15 ± 3 nM, an IC50 [6] of 6.4 ± 0.8 nM and an IC50 [5, 7] of 3200 nM.

`O=C(NCc1ccc(C(=O)NO)c(-c2ccccc2)c1)Nc1cccc2cccnc12` [Example 2] was tested, and the IC50 [6] was 214 ± 54 nM and the IC50 [5, 7] was 2360 ± 452 nM.

`CC(C)C(C(=O)Nc1ccc(C(=O)NO)c(-c2ccccc2)c1)c1ccccc1` (stereo not drawn) [Example 59] was tested, and the IC50 [6] was 555 ± 334 nM and the IC50 [5, 7] was greater than 10000 nM.

Work on `Cc1nc2ccccc2c(=O)n1Cc1ccc(C(=O)NO)c(-c2ccccc2)c1` [compound 12] yielded an IC50 [1] of 42 ± 7 nM, an IC50 [2] of 1100 nM and an IC50 [3] of 9 ± 2 nM. The IC50 [4] was 17 ± 3 nM, the IC50 [6] was 7.3 ± 1.2 nM and the IC50 [5, 7] was 2200 nM.

In the case of `Cc1cc(F)ccc1-c1cc(Cn2c(C)nc3ccccc3c2=O)ccc1C(=O)NO` [Example 13], the IC50 [6] is reported as 12 ± 1.2 nM and the IC50 [5, 7] is reported as 4210 ± 1760 nM.

`O=C(NCc1ccc(C(=O)NO)c(Br)c1)Nc1cccc2cccnc12` [Example 1, 2-bromo-N-hydroxy-4-((3-(quinolin-8-yl)ureido)methyl)benzamide, reference compound] was tested, and the IC50 [6] was greater than 10000 nM and the IC50 [5, 7] was 3840 ± 1630 nM.

Compound `O=C(NCc1ccc(C(=O)NO)c(-c2ccccc2)c1)c1cc2ccccc2[nH]1` [Example 24] has an IC50 [6] of 59 ± 10 nM and an IC50 [5, 7] greater than 10000 nM.

`Cc1cc(=O)n(Cc2ccc(C(=O)NO)c(-c3ccccc3)c2)c(C)n1` [Example 45] showed an IC50 [5, 7] greater than 10000 nM.

`O=C(NO)c1ccc(CN2C(=O)c3cccc(F)c3C2=O)cc1-c1ccccc1` [Example 55] showed an IC50 [1] of 13 ± 3 nM, an IC50 [2] of 4400 nM and an IC50 [3] of 16 ± 2 nM. For the same compound, the IC50 [4] was 183 ± 102 nM, the IC50 [5, 7] was 27000 nM and the IC50 [5, 8] was 27000 nM.

`O=C(NCc1ccc(C(=O)NO)c(Oc2ccccc2)c1)Nc1cccc2cccnc12` [Example 3, 2-phenoxy-N-hydroxy-4-((3-(quinolin-8-yl)ureido)methyl)benzamide, reference compound] showed an IC50 [6] greater than 10000 nM and an IC50 [5, 7] of 2520 ± 1340 nM.
